Data as given in patent US20130039897A1, “COMPOSITIONS AND METHODS FOR REGULATING NEUTROPHIL MOVEMENT AND NEUTROPHIL NUMBERS IN A BODY REGION” (The Texas A&M University System, priority 2011, published 2013).

Tested on: human neutrophils
Experiment: Insall chamber assay with DPPIV enzyme inhibitors, with or without rDPPIV
Type: cell-based
Settings: FIG. 5; for chemorepulsion of neutrophils away from the source of rDPPIV: inhibitor added with rDPPIV, compared to rDPPIV alone; for attraction or repulsion of human neutrophils: inhibitor alone
Method: Cover slips were then washed twice with PBS, and neutrophils at approximately 5×10^6 cells/ml were allowed to adhere to the coverslip for 15 minutes at 37° C. Two concentric depressions and the separating bridge in an Insall chamber slide were filled with 2% (w/v) BSA-RPMI. The media was removed from the coverslips, which were then placed face down on the chamber. Media was then removed from the outer chamber and was replaced by rDPPIV alone, DPPIV inhibitor alone (Diprotin A, Enzo Life Sciences or DPPI 1 c hydrochloride, Tocris Bioscience (Bristol, UK)), rDPPIV plus DPPIV inhibitor (all in 2% (w/v) BSA-RPMI), or 2% (w/v) BSA-RPMI. Cells located on the bridge between the square depressions were then filmed using the methods of Ochsner, S. A., et al., Disrupted function of tumor necrosis factor-alpha-stimulated gene 6 blocks cumulus cell-oocyte complex expansion. Endocrinology, 2003. 144(10): p. 4376-84, incorporated in material part by reference herein, using a 10× objective for 1 hour at 37° C. in a humidified 5% CO2 incubator. The displacement of at least 10 randomly-chosen cells per experiment was measured over periods of 10 minutes. Cell tracking and track analysis were performed according to the methods of Phillips, J. E. and R. H. Gomer, A secreted protein is an endogenous chemorepellant in Dictyostelium discoideum. Proc Natl Acad Sci U S A, 2012. 109(27): p. 10990 - 10996, incorporated in material part by reference herein, with the exception that videos of an hour in length were processed into 10 minute segments to yield a TIFF stack of 47 images for analysis (with 13-second intervals between images).
DPPIV enzyme activity has been implicated in chemotaxis of hematopoietic stem cells through cleavage of SDF-1. To determine if DPPIV enzyme activity is responsible for neutrophil chemorepulsion, two enzyme inhibitors of DPPIV, Diprotin A and DPPI 1 c HCl, were used in Insall chamber assays along with DPPIV.

Cl.N#C[C@@H]1CC[C@H](C#N)N1C(=O)CNC1(CO)CCCC1 [DPPI 1 c HCl, DPPI 1 c hydrochloride]
chemorepulsion of neutrophils away from the source of rDPPIV: significantly reduced | attraction or repulsion of human neutrophils: caused no attraction or repulsion

CC[C@H](C)[C@H](N)C(=O)N1CCC[C@H]1C(=O)N[C@H](C(=O)O)[C@@H](C)CC [Diprotin A]
chemorepulsion of neutrophils away from the source of rDPPIV: significantly reduced | attraction or repulsion of human neutrophils: caused no attraction or repulsion
